Assay [1] deals with T1, wildtype RET kinase (N-terminal GST tagged recombinant human RET cytoplasmic domain, aa 658-end) (Homo sapiens, UniProt P07949).
T1 construct: human RET cytoplasmic domain (aa 658-end); GST (N); purchased Eurofins 14-570M
T1 sequence (P07949 658-1114 limits assumed): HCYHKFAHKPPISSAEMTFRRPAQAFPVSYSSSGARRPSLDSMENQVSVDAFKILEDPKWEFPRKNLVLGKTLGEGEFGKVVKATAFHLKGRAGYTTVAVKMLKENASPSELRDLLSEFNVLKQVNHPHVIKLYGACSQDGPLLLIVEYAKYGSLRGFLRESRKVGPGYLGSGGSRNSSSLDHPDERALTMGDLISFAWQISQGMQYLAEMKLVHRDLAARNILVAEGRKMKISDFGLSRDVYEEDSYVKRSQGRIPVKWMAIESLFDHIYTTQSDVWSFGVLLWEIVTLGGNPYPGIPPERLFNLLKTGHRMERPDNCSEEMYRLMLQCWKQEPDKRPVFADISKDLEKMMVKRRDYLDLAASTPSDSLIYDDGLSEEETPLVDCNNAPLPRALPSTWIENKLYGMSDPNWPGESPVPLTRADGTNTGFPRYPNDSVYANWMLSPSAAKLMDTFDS
Description: RET enzyme assay (HTRF KinEASE TK), wildtype. Type of assay: biochemical. The note with it: 1 mM ATP, 60 min incubation at 22° C. As to the method: Assay A: RET Enzyme Assay
Compounds of formulas I, II, or III are screened for their ability to inhibit wildtype, V804M, and G810S mutant RET kinase using CisBio's HTRF® KinEASE™TK assay technology. N-terminal GST tagged recombinant human RET cytoplasmic domain (aa 658-end) from Eurofins ([…]; Catalog No. 14-570M) or N-terminal GST tagged recombinant human V804M mutant RET cytoplasmic domain (aa 658-end) from Millipore (1.25 nM enzyme; Catalog No. 14-760) or N-Terminal GST-tagged recombinant human G810S (aa-658-end) (1.25 nM Enzyme; produced in insect cells) is incubated with 62.5 nM TK-substrate biotin (CisBio, part of Catalog No. 62TK0PEC) and 1 mM ATP along with test compound (0.4% final DMSO in the assay) in a 1× Cisbio enzymatic buffer consisting of […], 5 mM MgCl2, 0.04% BSA and 0.05% Tween20 in a volume of 10 μL. Compounds are typically prepared in a threefold serial dilution in DMSO and added to the assay to give the appropriate final concentration. After a 40-60 min (40 min for V804M, 60 min for WT and G810S) incubation at 22° C., the reaction is quenched by adding quench solution (10 μL) containing 7.8 nM Streptavidine-XL665 and 0.5×TK-ab-Cryptate in HTRF detection buffer (all from CisBio, part of Cat. No. 62TK0PEC). After a 60-80 min incubation (60 minutes for WT, 80 minutes for V804M and G810S) at 22° C., the extent of reaction is determined using a PHERastar plate reader via HTRF detection at excitation/emission 337/665 nm. Percent of inhibition is calculated with 0% inhibition referring to control conditions containing no compound (0.4% DMSO only) and 100% inhibition represented by conditions containing no enzyme. The % inhibition values are fit to a 4 parameter logistic curve, and the determined IC50 value is defined as the estimated concentration of inhibitor at the inflexion point of the fitted curve.
(In general: Time-resolved FRET reads energy transfer from a long-lived donor to a nearby acceptor.)

Assay [2] deals with T2, KIF5B-RET WT in HEK293 cells (Homo sapiens, UniProt P07949).
T2 construct: expressed in transfected cells; host or cells: HEK293; the other entry of the earlier key: KIF5B (P33176, Kinesin-1 heavy chain)
T2 sequence (P07949 713-1063 limits assumed): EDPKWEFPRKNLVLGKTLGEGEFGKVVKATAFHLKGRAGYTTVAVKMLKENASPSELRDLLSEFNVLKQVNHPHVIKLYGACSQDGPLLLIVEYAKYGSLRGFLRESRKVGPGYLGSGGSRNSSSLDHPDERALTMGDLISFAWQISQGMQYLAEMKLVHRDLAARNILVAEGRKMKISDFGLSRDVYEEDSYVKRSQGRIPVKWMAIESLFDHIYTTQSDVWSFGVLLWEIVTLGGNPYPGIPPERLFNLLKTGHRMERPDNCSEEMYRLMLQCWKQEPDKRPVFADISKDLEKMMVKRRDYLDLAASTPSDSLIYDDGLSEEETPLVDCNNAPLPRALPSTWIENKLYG
Description: RET cell assay (In-Cell Western, phospho-RET Y1062), wildtype. Type of assay: cell-based. The settings on record: HEK293, doxycycline-induced KIF5B-RET WT, 1 hr compound treatment; read-out: EC50, inhibition of intracellular autophosphorylation of RET at tyrosine 1062, wildtype cells. How it is done:
Compounds of formulas (I), (II), and (III) are screened for their ability to inhibit the intracellular autophosphorylation of RET at tyrosine 1062 as detected by In-Cell Western. HEK293 cells containing a doxycycline-inducible plasmid for inducible expression of KIF5B-RET WT and RET mutant forms V804M and G810S are seeded at 25,000 cells/well into black poly-D-lysine pre-coated 384-well plates (Corning, Catalog No. 356697). Expression of KIF5B-RET is induced with doxycycline at 1 μg/mL and cells are incubated at 37° C. overnight. Compounds are prepared in a threefold serial dilution in DMSO before further diluting 1:100 in media prior to the addition to the cells (0.1% final DMSO concentration). Compound treatment is performed for 1 hr at 37° C. followed by fixation of cells with 4% formaldehyde for 20 min at RT and cell permeabilisation with ice-cold MeOH for 10 min at RT. Cells are incubated with Intercept® blocking buffer (Li—COR, Catalogue No. 927-70010) for 1 hr at RT. Incubation with primary antibodies against human phospho-RET (Y1062) (R&D, Catalogue No. AF5009, 1/250 dilution) and human glyceraldehyde-3-phosphate dehydrogenase (clone 6C5, Merck, Catalog No. MAB374, 1/1000 dilution) are performed overnight at 4° C. Incubation with secondary antibodies IRDye® 800CW goat anti-rabbit IgG (Li—COR, Catalogue No. 926-32211, 1/1000 dilution) and IRDye® 680CW goat anti-mouse IgG (Li—COR, Catalogue No. 926-68070, 1/1000 dilution) are performed for 1 hr at RT. All antibody dilutions are done in Intercept® blocking buffer containing 0.05% Tween20. After washing cells with PBS-T (Cell Signaling technology, Catalogue No. 9809), the images are acquired on a Li—COR Odyssey LCx at 700 and 800 nm. Percent of DMSO control is calculated with 100% signal referring to control conditions containing no compound (0.4% DMSO only) and 0% signal represented by conditions containing control compound. The % of DMSO control values are fit to a 4 parameter logistic curve, and the determined EC50 value is defined as the estimated concentration of inhibitor at the inflexion point of the fitted curve.

Twelve compounds from US11613533B2, “Compounds useful for inhibiting RET kinase” (Eli Lilly and Company, priority 2020, dated 2023) can be followed below.

Broadly, the IC50 is the concentration at which inhibition is half-maximal. For orientation: EC50 means the concentration needed to bring the measured effect to its halfway point.

The structures appear in SMILES notation. Bounds are passed on as bounds.

In the case of `CC(C(=O)Nc1cc(CC(C)(C)C)no1)c1ccc(-c2nn(C(C)C)c(N)c2C(N)=O)cc1` (single isomer, unassigned; isomer 1) [Example 1, 5-Amino-3-[4-(1-[[3-(2,2-dimethylpropyl)-1,2-oxazol-5-yl]carbamoyl]ethyl)phenyl]-1-isopropylpyrazole-4-carboxamide, Isomer 1], the IC50 in assay [1] is below 100 nM. Also, in assay [2], the EC50 is below 100 nM.
With `CCC(C)(C)c1cc(NC(=O)C(C)c2ccc(-c3nn(C(C)C)c(N)c3C(N)=O)cc2)on1` (single isomer, unassigned; isomer 1) [Example 15, 5-Amino-1-isopropyl-3-[4-(1-[[3-(2-methylbutan-2-yl)-1,2-oxazol-5-yl]carbamoyl]ethyl)phenyl]pyrazole-4-carboxamide, Isomer 1], the IC50 in assay [1] was below 100 nM. The EC50 in assay [2] was below 100 nM.
For the compound `CC(C(=O)Nc1cc(C(C)(C)C(F)(F)F)no1)c1ccc(-c2nn(C(C)C)c(N)c2C(N)=O)cc1` (single isomer, unassigned; isomer 1) [Example 17, 5-Amino-1-isopropyl-3-[4-(1-[[3-(1,1,1-trifluoro-2-methylpropan-2-yl)-1,2-oxazol-5-yl]carbamoyl]ethyl)phenyl]pyrazole-4-carboxamide, Isomer 1], the IC50 in assay [1] was below 100 nM. Besides, the EC50 in assay [2] was below 100 nM.
As for `CC(C(=O)Nc1cc(C2(C)CC2)no1)c1ccc(-c2nn(C(C)C)c(N)c2C(N)=O)cc1` (single isomer, unassigned; isomer 1) [Example 35, 5-Amino-1-isopropyl-3-[4-(1-[[3-(1-methylcyclopropyl)-1,2-oxazol-5-yl]carbamoyl]ethyl)phenyl]pyrazole-4-carboxamide, Isomer 1], the IC50 in assay [1] was below 100 nM. In addition, in assay [2], the EC50 is below 100 nM.
For the compound `CC(C(=O)Nc1cc(-c2ccc(Cl)cc2Cl)no1)c1ccc(-c2nn(C(C)C)c(N)c2C(N)=O)cc1` (single isomer, unassigned; isomer 1) [Example 45, 5-Amino-3-[4-(1-[[3-(2,4-dichlorophenyl)-1,2-oxazol-5-yl]carbamoyl]ethyl)phenyl]-1-isopropylpyrazole-4-carboxamide, Isomer 1], the IC50 in assay [1] was below 100 nM. Also, the EC50 in assay [2] is below 100 nM.
Take `CC(C(=O)Nc1cc(C(C)(C)C(F)(F)F)on1)c1ccc(-c2nn(C(C)C)c(N)c2C(N)=O)cc1` (single isomer, unassigned; isomer 1) [Example 81, 5-Amino-1-isopropyl-3-[4-(1-[[5-(1,1,1-trifluoro-2-methylpropan-2-yl)-1,2-oxazol-3-yl]carbamoyl]ethyl)phenyl]pyrazole-4-carboxamide, Isomer 1]: the IC50 in assay [1] was below 100 nM. The EC50 in assay [2] is below 100 nM.
Turning to `CC(C(=O)Nc1cc(C2CC(C)(C)C2)no1)c1ccc(-c2nn(C(C)C)c(N)c2C(N)=O)cc1` (single isomer, unassigned; isomer 1) [Example 98, 5-Amino-3-[4-[2-[[3-(3,3-dimethylcyclobutyl)isoxazol-5-yl]amino]-1-methyl-2-oxo-ethyl]phenyl]-1-isopropyl-pyrazole-4-carboxamide, Isomer 1], the 50% inhibitory concentration (IC50) in assay [1] was below 100 nM. Further, the concentration for a half-maximal effect (EC50) in assay [2] was below 100 nM.
For `CCC(C)(C)c1cc(NC(=O)C(C)c2ccc(-c3nn(C(C)C)c(N)c3C(N)=O)cc2)no1` (single isomer, unassigned; isomer 2) [Example 52, 5-Amino-1-isopropyl-3-[4-(1-[[5-(2-methylbutan-2-yl)-1,2-oxazol-3-yl]carbamoyl]ethyl)phenyl]pyrazole-4-carboxamide, Isomer 2], the IC50 in assay [1] was below 100 nM. Moreover, in assay [2], the EC50 was below 100 nM.
As to `CC(C(=O)Nc1cc(C(C)(C)C(F)(F)F)on1)c1ccc(-c2nn(C(C)C)c(N)c2C(N)=O)nc1` (single isomer, unassigned; isomer 2) [Example 64, 5-Amino-1-isopropyl-3-[5-(1-[[5-(1,1,1-trifluoro-yl)-1,2-oxazol-3-2-methylpropan-2-yl]carbamoyl]ethyl)pyridin-2-yl]pyrazole-4-carboxamide, Isomer 2], the IC50 in assay [1] is below 100 nM. Besides, the EC50 in assay [2] was below 100 nM.
Regarding `CCC(C)(C)c1cc(NC(=O)C(C)c2ccc(-c3nn(C(C)C)c(N)c3C(N)=O)nc2)no1` (single isomer, unassigned; isomer 2) [Example 66, 5-Amino-1-isopropyl-3-[5-(1-[[5-(2-methylbutan-2-yl)-1,2-oxazol-3-yl]carbamoyl]ethyl)pyridin-2-yl]pyrazole-4-carboxamide, Isomer 2], the IC50 in assay [1] is below 100 nM. The concentration for a half-maximal effect (EC50) in assay [2] was below 100 nM.
As to `CC(C(=O)Nc1cc(C(C)(C)CC(F)(F)F)on1)c1ccc(-c2nn(C(C)C)c(N)c2C(N)=O)nc1` (single isomer, unassigned; isomer 2) [Example 68, 5-Amino-1-isopropyl-3-(5-(1-oxo-1-((5-(4,4,4-trifluoro-2-methylbutan-2-yl)isoxazol-3-yl)amino)propan-2-yl)pyridin-2-yl)-1H-pyrazole-4-carboxamide, Isomer 2], in assay [1], the IC50 was below 100 nM. Besides, the EC50 in assay [2] is below 100 nM.
`CC(C(=O)Nc1cc(C(C)(C)C(C)(F)F)on1)c1ccc(-c2nn(C(C)C)c(N)c2C(N)=O)nc1` (single isomer, unassigned; isomer 2) [Example 70, 5-Amino-3-[5-(1-[[5-(3,3-difluoro-2-methylbutan-2-yl)-1,2-oxazol-3-yl]carbamoyl]ethyl)pyridin-2-yl]-1-isopropylpyrazole-4-carboxamide, Isomer 2]: the IC50 in assay [1] was below 100 nM. Further, in assay [2], the half-maximal effective concentration (EC50) is below 100 nM.
